From patent publication US8956824B2, “Methods for identifying allosteric modulators of ship polypeptides” (British Columbia Cancer Agency Branch, priority 2006, dated 2015)
Entries after “also recorded” stand apart in the source; their conditions may differ.

What was measured:
[1] = test system: SHIP1+/+ and SHIP1−/− BMmφs; test: LPS-stimulated TNFα production in BMmφs; format: cell-based, mouse; details: 30 min pretreatment, 10 ng/mL LPS, ELISA
Description: Production of SHIP+/+ and SHIP-/- BMMCs and BMnφs. […] LPS stimulation of BMmφs. For the analysis of LPS-stimulated TNFα production, 2 ×10^5 cells were plated the night before in 24 well plates in BMmφp medium. […] Data are expressed as the mean +/- SEM of triplicates and experiments were repeated 3 times. For analysis of intracellular signaling, 2×10^6 cells were plated the night before in 6 cm tissue culture plates. […] Cells were washed with 4° C. PBS and resuspended in lysis buffer (50 mM Hepes, 2 mM EDTA, 1mM NaVO4 , 100 mM NaF, 50 mM NaPPi and 1%NP4O) supplemented with COMPLETETM Protease Inhibitor Cocktail (Roche, Montreal, Canada). Lysates were rocked at 4° C. for 30 min and clarified by centrifuging 20 min at 12000×g. Lysates were then made 1× in Laemmli's buffer, boiled 2 min and loaded onto 7.5% SDS polyacrylamide […]. Immunoblot analysis for phospho PKB (Cell Signalling, Mississauga, Ont), SHIP1 and actin (Santa Cruz, Santa Cruz, Calif.) were carried out as described previously (18). Results are representative of 3 independent experiments.

LPS-induced plasma TNFα = test: Mouse septicemia model; format: in vivo; details: for plasma TNFα level after LPS challenge: oral, 30 min prior to IP 2 mg/kg LPS, blood 2 h later, AQX-016A 20 mg/kg
Description: Mouse septicemia model. […] Blood was drawn 2 hrs later for determination of plasma TNFα by ELISA. Results are representative of 3 independent experiments.

PH domain deleted SHIP1 = biological target: T1, PH domain deleted SHIP1 (Mus musculus, UniProt Q9ES52, DEL292-400/E403A/P402A/Q401A); test: In vitro SHIP enzyme assay, PH domain deleted SHIP1; format: biochemical; details: FIG. 10, FIG. 14A
T1 construct: Full length, wild-type SHIP1 enzyme (wt) or SHIP1 enzyme in which the PH or C2 domains were deleted; His6 (N); made in house; 293T cells are stated only for the wild-type enzyme
T1 sequence (Q9ES52 with tags, fused parts or gaps DEL292-400/Q401A/P402A/E403A): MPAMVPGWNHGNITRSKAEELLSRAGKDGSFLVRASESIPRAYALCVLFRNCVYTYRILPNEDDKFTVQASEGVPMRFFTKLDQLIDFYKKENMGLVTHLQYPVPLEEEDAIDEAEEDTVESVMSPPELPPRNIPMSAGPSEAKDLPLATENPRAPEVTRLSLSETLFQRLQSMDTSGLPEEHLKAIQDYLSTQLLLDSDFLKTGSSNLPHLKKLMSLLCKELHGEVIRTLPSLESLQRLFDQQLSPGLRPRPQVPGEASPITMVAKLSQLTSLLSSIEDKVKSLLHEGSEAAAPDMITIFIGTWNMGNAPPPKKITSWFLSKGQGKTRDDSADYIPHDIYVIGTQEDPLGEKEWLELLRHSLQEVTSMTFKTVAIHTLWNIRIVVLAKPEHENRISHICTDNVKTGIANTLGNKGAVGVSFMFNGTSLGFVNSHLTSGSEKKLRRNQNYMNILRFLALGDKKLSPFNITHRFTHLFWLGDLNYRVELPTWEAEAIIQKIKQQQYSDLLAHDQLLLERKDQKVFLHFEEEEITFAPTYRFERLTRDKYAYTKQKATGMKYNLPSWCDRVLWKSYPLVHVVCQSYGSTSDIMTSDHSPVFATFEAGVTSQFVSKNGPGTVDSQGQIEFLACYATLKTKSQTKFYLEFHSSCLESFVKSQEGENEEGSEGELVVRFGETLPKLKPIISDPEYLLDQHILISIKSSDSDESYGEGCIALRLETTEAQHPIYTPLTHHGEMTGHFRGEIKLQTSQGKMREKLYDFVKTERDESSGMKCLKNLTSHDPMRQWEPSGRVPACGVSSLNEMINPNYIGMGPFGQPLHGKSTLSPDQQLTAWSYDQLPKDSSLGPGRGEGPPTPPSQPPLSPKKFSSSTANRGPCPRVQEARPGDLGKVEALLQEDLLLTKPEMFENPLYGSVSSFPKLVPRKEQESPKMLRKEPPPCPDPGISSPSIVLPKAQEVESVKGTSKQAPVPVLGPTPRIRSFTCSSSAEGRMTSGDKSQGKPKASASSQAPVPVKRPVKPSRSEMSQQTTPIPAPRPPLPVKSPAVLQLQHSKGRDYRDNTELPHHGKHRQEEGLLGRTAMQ
Description: The SHIP1 PH domain deletion mutant and an isolated PH domain construct were generated using techniques similar to those used for the C2 domain. More specifically, the PH domain (amino acids 984-1319) was deleted from the murine SHIP (mSHIP) cDNA as follows: using pME18S-mSHIP1 as a template, a 527 by PCR fragment (“Upstream Fragment”) was generated using the indicated primers to generate a fragment corresponding to sequence immediately upstream of the SHIP PH domain within which resides a unique AccI restriction cut site. A Nod restriction cut site was also introduced to the 3′ end of this fragment. The PCR product was digested with Acd and Nod, and gel purified. Using pME18S-mSHIP1 as a template, a 776 by PCR fragment (“Downstream Fragment”) was generated using the indicated primers corresponding to sequence immediately downstream of the SHIP PH domain within which resides a unique ClaI restriction cut site. A Nod restriction cut site was introduced to the 5′ end of this fragment. […]
In vitro SHIP enzyme assay. […] The reaction was allowed to proceed for 20 min at 37° C. and the amount of inorganic phosphate released assessed by the addition of Malachite Green reagent followed by an absorbance measurement at 650 nm (15). […] Enzyme data are expressed as the mean of triplicates+/−SEM. […]

| Compound | LPS-stimulated TNFα production, SHIP1+/+ vs SHIP1−/− macrophages [1] | bioavailability (LPS-induced plasma TNFα; concluded from septicemia (oral) and cutaneous anaphylaxis (topical) models) | plasma TNFα level after LPS challenge (LPS-induced plasma TNFα) | activation of SHIP1 with PH domain deleted (PH domain deleted SHIP1) |
| --- | --- | --- | --- | --- |
| Cc1cc(O)c(O)c2c1[C@]1(C)CC[C@H]3C(C)(C)CCC[C@]3(C)[C@H]1C2 [AQX-016A] | preferentially inhibited LPS-stimulated TNFα production in SHIP1+/+ than in SHIP1−/− | both orally and topically bioavailable | reduced the level of TNFα to the same extent as the control | – |
| phosphatidylinositol-3,4-bisphosphate [PI-3,4-P2, reference compound] | – | – | – | abrogates ability of SHIP to be activated |
| Cc1cc(O)cc2c1[C@]1(C)CC[C@H]3C(C)(C)CCC[C@]3(C)[C@H]1C2 [AQX-MN100] | selectively inhibited TNFα production from SHIP1+/+ but not SHIP1−/− macrophages; also recorded: inhibits TNFα production from LPS stimulated SHIP1+/+ but not −/− BMmφs | – | efficiently inhibited the LPS-induced elevation of plasma TNFα levels; also recorded: inhibits LPS-induced plasma TNFα levels in mice | attenuates but does not prevent activation; also recorded: abrogates ability of SHIP to be activated |
